Assay results taken from ChEMBL document CHEMBL4376820, “Homodimeric Tobramycin Adjuvant Repurposes Novobiocin as an Effective Antibacterial Agent against Gram-Negative Bacteria” (J Med Chem, 2019).
The source made the active and inactive calls. The rule behind the calls is not given here.

Columns and labels:
Pseudomonas aeruginosa [1] = assay: Synergistic antibacterial activity against wild type Pseudomonas aeruginosa PAO1 assessed as potentiation of tobramycin-induced antibacterial effect at <= 7.1 uM incubated for 18 hrs by checkerboard assay; type: functional, organism-based
Acinetobacter baumannii [2] = assay: Potentiation of novobiocin-induced antibacterial activity against Acinetobacter baumannii 110193 clinical isolate assessed as novobiocin MIC at <= 7.1 uM incubated for 18 hrs by CLSI protocol based assay (reference value: 256 ug/ml); type: functional; conditions: Acinetobacter baumannii, 110193, 18 h
Escherichia coli [3] = assay: Potentiation of novobiocin-induced antibacterial activity against carbapenem-resistant Escherichia coli 107115 clinical isolate harboring mcr-1 gene assessed as fold reduction in novobiocin MIC incubated for 18 hrs by CLSI protocol based assay relative to novobiocin MIC; type: functional
Pseudomonas aeruginosa [4] = assay: Synergistic antibacterial activity against wild type Pseudomonas aeruginosa PAO1 assessed as potentiation of piperacillin-induced antibacterial effect incubated for 18 hrs by checkerboard assay; type: functional, organism-based
Pseudomonas aeruginosa [5] = assay: Synergistic antibacterial activity against wild type Pseudomonas aeruginosa PAO1 assessed as potentiation of novobiocin-induced antibacterial effect incubated for 18 hrs by checkerboard assay; type: functional, organism-based
Pseudomonas aeruginosa [6] = assay: Synergistic antibacterial activity against wild type Pseudomonas aeruginosa PAO1 assessed as potentiation of rifampicin-induced antibacterial effect incubated for 18 hrs by checkerboard assay; type: functional, organism-based
Pseudomonas aeruginosa [7] = assay: Potentiation of novobiocin-induced antibacterial activity against colistin and carbapenem-resistant Pseudomonas aeruginosa 101243 clinical isolate assessed as novobiocin MIC at <= 7.1 uM incubated for 18 hrs by CLSI protocol based assay (reference value: 128 ug/ml); type: functional; conditions: Pseudomonas aeruginosa, 101243, 18 h
Pseudomonas aeruginosa [8] = assay: Antibacterial activity against Pseudomonas aeruginosa 259-96918 clinical isolate incubated for 18 hrs by CLSI protocol based assay; type: functional; conditions: 259-96918, 18 h
Pseudomonas aeruginosa [9] = assay: Synergistic antibacterial activity against wild type Pseudomonas aeruginosa PAO1 assessed as potentiation of fosfomycin-induced antibacterial effect incubated for 18 hrs by checkerboard assay relative to fosfomycin alone; type: functional
Acinetobacter baumannii [10] = assay: Antibacterial activity against Acinetobacter baumannii 027 clinical incubated for 18 hrs by CLSI protocol based assay; type: functional; conditions: Acinetobacter baumannii, 027, 18 h
Pseudomonas aeruginosa [11] = assay: Antibacterial activity against carbapenem-resistant Pseudomonas aeruginosa 262-101856 clinical isolate incubated for 18 hrs by CLSI protocol based assay; type: functional; conditions: 262-101856, 18 h
Escherichia coli [12] = assay: Antibacterial activity against wild type Escherichia coli ATCC 25922 incubated for 18 hrs by CLSI protocol based assay; type: functional; conditions: ATCC 25922, 18 h
Pseudomonas aeruginosa [13] = assay: Potentiation of novobiocin-induced antibacterial activity against carbapenem-resistant Pseudomonas aeruginosa 262-101856 clinical isolate assessed as fold reduction in novobiocin MIC incubated for 18 hrs by CLSI protocol based assay relative to novobiocin MIC; type: functional
Escherichia coli [14] = assay: Bactericidal activity against Escherichia coli ATCC […] assessed as log reduction in colony forming units per ml at 7.1 uM in LB media after 6 hrs in presence of 50.4 uM novobiocin by time-kill assay; type: functional
Pseudomonas aeruginosa [15] = assay: Synergistic antibacterial activity against wild type Pseudomonas aeruginosa PAO1 assessed as potentiation of ciprofloxacin-induced antibacterial effect incubated for 18 hrs by checkerboard assay relative to ciprofloxacin alone; type: functional
Pseudomonas aeruginosa [16] = assay: Synergistic antibacterial activity against wild type Pseudomonas aeruginosa PAO1 assessed as potentiation of linezolid-induced antibacterial effect incubated for 18 hrs by checkerboard assay relative to linezolid alone; type: functional
HEK293 = assay: Cytotoxicity against human HEK293 cells at 50 uM incubated for 48 hrs by PrestoBlue dye based fluorescence assay; type: cell-based; conditions: hek293, 48 h
Pseudomonas aeruginosa [17] = assay: Synergistic antibacterial activity against wild type Pseudomonas aeruginosa PAO1 assessed as potentiation of aztreonam-induced antibacterial effect incubated for 18 hrs by checkerboard assay; type: functional, organism-based
Pseudomonas aeruginosa [18] = assay: Synergistic antibacterial activity against wild type Pseudomonas aeruginosa PAO1 assessed as potentiation of clindamycin-induced antibacterial effect incubated for 18 hrs by checkerboard assay relative to clindamycin alone; type: functional
Pseudomonas aeruginosa [19] = assay: Synergistic antibacterial activity against wild type Pseudomonas aeruginosa PAO1 assessed as potentiation of clindamycin-induced antibacterial effect incubated for 18 hrs by checkerboard assay; type: functional, organism-based
Pseudomonas aeruginosa [20] = assay: Synergistic antibacterial activity against wild type Pseudomonas aeruginosa PAO1 assessed as potentiation of levofloxacin-induced antibacterial effect incubated for 18 hrs by checkerboard assay; type: functional, organism-based
Acinetobacter baumannii [21] = assay: Potentiation of novobiocin-induced antibacterial activity against wild type Acinetobacter baumannii ATCC 17978 assessed as fold reduction in novobiocin MIC incubated for 18 hrs by CLSI protocol based assay relative to novobiocin MIC; type: functional
Acinetobacter baumannii [22] = assay: Antibacterial activity against wild type Acinetobacter baumannii ATCC 17978 by checkerboard assay; type: functional
Pseudomonas aeruginosa [23] = assay: Synergistic antibacterial activity against wild type Pseudomonas aeruginosa PAO1 assessed as potentiation of fosfomycin-induced antibacterial effect incubated for 18 hrs by checkerboard assay; type: functional, organism-based
Enterobacter cloacae [24] = assay: Potentiation of novobiocin-induced antibacterial activity against Enterobacter cloacae 117029 clinical solate assessed as fold reduction in novobiocin MIC incubated for 18 hrs by CLSI protocol based assay relative to novobiocin MIC; type: functional
Escherichia coli [25] = assay: Potentiation of novobiocin-induced antibacterial activity against colistin-resistant Escherichia coli 94393 clinical isolate harboring mcr-1 gene assessed as novobiocin MIC at <= 7.1 uM incubated for 18 hrs by CLSI protocol based assay (reference value: 128 ug/ml); type: functional; conditions: Escherichia coli, 94393, 18 h
Klebsiella pneumoniae [26] = assay: Antibacterial activity against colistin-resistant Klebsiella pneumoniae 113254 clinical isolate incubated for 18 hrs by CLSI protocol based assay; type: functional; conditions: Klebsiella pneumoniae, 113254, 18 h
[27] = Toxicity in Galleria mellonella larvae MDR Acinetobacter baumannii isolate assessed as larvae protection at 50 mg/kg in combination with novobiocin measured after 24 to 96 hrs relative to control; type: ADME, organism-based; conditions: in vivo
Klebsiella pneumoniae [28] = assay: Potentiation of novobiocin-induced antibacterial activity against colistin-resistant Klebsiella pneumoniae 113250 clinical isolate assessed as novobiocin MIC at <= 7.1 uM incubated for 18 hrs by CLSI protocol based assay (reference value: 512 ug/ml); type: functional; conditions: Klebsiella pneumoniae, 113250, 18 h
Pseudomonas aeruginosa [29] = assay: Antibacterial activity against carbapenem-resistant Pseudomonas aeruginosa 101885 clinical isolate incubated for 18 hrs by CLSI protocol based assay; type: functional; conditions: Pseudomonas aeruginosa, 101885, 18 h
Pseudomonas aeruginosa [30] = assay: Potentiation of novobiocin-induced antibacterial activity against wild type Pseudomonas aeruginosa PAO1 assessed as fold reduction in novobiocin MIC incubated for 18 hrs by CLSI protocol based assay relative to novobiocin MIC; type: functional
Acinetobacter baumannii [31] = assay: Potentiation of novobiocin-induced antibacterial activity against Acinetobacter baumannii 027 clinical isolate assessed as fold reduction in novobiocin MIC incubated for 18 hrs by CLSI protocol based assay relative to novobiocin MIC; type: functional
Klebsiella pneumoniae [32] = assay: Antibacterial activity against Klebsiella pneumoniae 116381 clinical isolate incubated for 18 hrs by CLSI protocol based assay; type: functional; conditions: Klebsiella pneumoniae, 116381, 18 h
Enterobacter cloacae [33] = assay: Antibacterial activity against colistin-resistant Enterobacter cloacae 118568 clinical solate incubated for 18 hrs by CLSI protocol based assay; type: functional; conditions: Enterobacter cloacae, 118568, 18 h
Escherichia coli [34] = assay: Antibacterial activity against colistin-resistant Escherichia coli 94393 clinical isolate harboring mcr-1 gene incubated for 18 hrs by CLSI protocol based assay; type: functional; conditions: Escherichia coli, 94393, 18 h

## NC[C@H]1O[C@H](O[C@H]2[C@H](OCCCCc3cn(CCCCO[C@@H]4[C@@H](O[C@H]5O[C@H](CO)[C@@H](O)[C@H](N)[C@H]5O)[C@H](N)C[C@H](N)[C@H]4O[C@H]4O[C@H](CN)[C@@H](O)C[C@H]4N)nn3)[C@@H](O[C@H]3O[C@H](CO)[C@@H](O)[C@H](N)[C@H]3O)[C@H](N)C[C@@H]2N)[C@H](N)C[C@@H]1O.O=C(O)C(F)(F)F.O=C(O)C(F)(F)F.O=C(O)C(F)(F)F.O=C(O)C(F)(F)F.O=C(O)C(F)(F)F.O=C(O)C(F)(F)F.O=C(O)C(F)(F)F.O=C(O)C(F)(F)F.O=C(O)C(F)(F)F.O=C(O)C(F)(F)F
Pseudomonas aeruginosa [1]
  Activity: inactive
Acinetobacter baumannii [2]
  MIC: 1 µg/mL
Escherichia coli [3]
  Ratio: 16
Pseudomonas aeruginosa [4]
  Activity: Dose-dependent effect
Pseudomonas aeruginosa [5]
  Activity: Dose-dependent effect
Pseudomonas aeruginosa [6]
  Activity: Dose-dependent effect
Pseudomonas aeruginosa [7]
  MIC: 1 µg/mL
Pseudomonas aeruginosa [8]
  MIC: > 128 µg/mL
Pseudomonas aeruginosa [9]
  fold change (FC): 4 - 128
Acinetobacter baumannii [10]
  MIC: > 128 µg/mL
Pseudomonas aeruginosa [11]
  MIC: > 128 µg/mL
Escherichia coli [12]
  MIC: > 128 µg/mL
Pseudomonas aeruginosa [13]
  Ratio: 64
Escherichia coli [14]
  Activity: -5 CFU/ml
Pseudomonas aeruginosa [15]
  fold change (FC): 4 - 128
Pseudomonas aeruginosa [16]
  fold change (FC): 4 - 128
HEK293
  Activity: Non-Toxic
Pseudomonas aeruginosa [17]
  Activity: Dose-dependent effect
Pseudomonas aeruginosa [18]
  fold change (FC): 4 - 128
Pseudomonas aeruginosa [19]
  Activity: Dose-dependent effect
Pseudomonas aeruginosa [20]
  Activity: Dose-dependent effect
Acinetobacter baumannii [21]
  Ratio: 32
Acinetobacter baumannii [22]
  MIC: 0.5 µg/mL
Pseudomonas aeruginosa [23]
  Activity: Dose-dependent effect
Enterobacter cloacae [24]
  Ratio: 128
Escherichia coli [25]
  MIC: 2 µg/mL
Klebsiella pneumoniae [26]
  MIC: > 128 µg/mL
[27]
  Activity: 80%
Klebsiella pneumoniae [28]
  MIC: 16 µg/mL
Pseudomonas aeruginosa [29]
  MIC: > 128 µg/mL
Pseudomonas aeruginosa [30]
  Ratio: 128
Acinetobacter baumannii [31]
  Ratio: 16
Klebsiella pneumoniae [32]
  MIC: > 128 µg/mL
Enterobacter cloacae [33]
  MIC: > 128 µg/mL
Escherichia coli [34]
  MIC: > 128 µg/mL
